Experimental findings from ChEMBL document CHEMBL1649243, “TEM-168, a heretofore laboratory-derived TEM beta-lactamase variant found in an Escherichia coli clinical isolate” (2009) are described below.

Converted amounts (≈) assume the structure as drawn.

What all share (assay type): functional
For test [1], the system named is Escherichia coli. Kind of test: Antimicrobial activity against Escherichia coli NO8-1503 harboring blaTEM-168 gene by Etest.
For test [2], the system named is Escherichia coli. Briefly: Antimicrobial activity against Escherichia coli DH10B transformant harboring blaTEM-168 gene by broth microdilution method.
Test [3] relates to Escherichia coli. Kind of test: Antimicrobial activity against Escherichia coli NO8-1503 harboring blaTEM-168 gene by broth microdilution method.
Test [4] relates to Escherichia coli. Briefly: Antimicrobial activity against Escherichia coli DH10B transformant harboring blaTEM-168 gene by Etest.
Test [5] deals with Escherichia coli. Kind of test: Antimicrobial activity against Escherichia coli DH10B transformant harboring blaTEM-168 gene by Etest in presence of clavulanic acid.
For test [6], the system named is Escherichia coli. Kind of test: Antimicrobial activity against Escherichia coli NO8-1503 harboring blaTEM-168 gene by Etest in presence of clavulanic acid.
The test system of test [7] is Escherichia coli. Briefly: Antimicrobial activity against Escherichia coli DH10B by Etest in presence of clavulanic acid.
The test system of test [8] is Escherichia coli. Briefly: Antimicrobial activity against Escherichia coli DH10B by Etest.
Test [9] deals with Escherichia coli. Kind of test: Antimicrobial activity against Escherichia coli DH10B transformant harboring blaTEM-168 gene by disk diffusion method.
Test [10] has as its system Escherichia coli. Kind of test: Antimicrobial activity against Escherichia coli DH10B transformant harboring blaTEM-168 gene by disk diffusion method in presence of clavulanic acid.
Test [11] deals with Escherichia coli. Kind of test: Antimicrobial activity against Escherichia coli NO8-1503 harboring blaTEM-168 gene by disk diffusion method in presence of clavulanic acid.
In test [12] the test system is Escherichia coli. Briefly: Antimicrobial activity against Escherichia coli DH10B by broth microdilution method in presence of clavulanic acid.
Test [13] relates to Escherichia coli. Briefly: Antimicrobial activity against Escherichia coli DH10B by disk diffusion method.
Test [14] deals with Escherichia coli. Briefly: Antimicrobial activity against Escherichia coli DH10B by broth microdilution method.
Test [15] deals with Escherichia coli. Briefly: Antimicrobial activity against Escherichia coli DH10B by disk diffusion method in presence of clavulanic acid.
For test [16], the system named is Escherichia coli. Briefly: Antimicrobial activity against Escherichia coli NO8-1503 harboring blaTEM-168 gene by broth microdilution method in presence of clavulanic acid.
Test [17] relates to Escherichia coli. Briefly: Antimicrobial activity against Escherichia coli NO8-1503 harboring blaTEM-168 gene by disk diffusion method.
Test [18] relates to Escherichia coli. Briefly: Antimicrobial activity against Escherichia coli DH10B transformant harboring blaTEM-168 gene by broth microdilution method in presence of clavulanic acid.
Test [19] relates to Escherichia coli. Kind of test: Antimicrobial activity against Escherichia coli NO8-1503 harboring blaTEM-168 gene by Etest in presence of Tazobactam.
Test [20] relates to Escherichia coli. Briefly: Antimicrobial activity against Escherichia coli DH10B by Etest in presence of Tazobactam.
For test [21], the system named is Escherichia coli. Kind of test: Antimicrobial activity against Escherichia coli DH10B transformant harboring blaTEM-168 gene by Etest in presence of Tazobactam.

Take `CO/N=C(\C(=O)N[C@@H]1C(=O)N2C(C(=O)[O-])=C(C[N+]3(C)CCCC3)CS[C@H]12)c1csc(N)n1`: the MIC against Escherichia coli [1] came out at 2 µg/mL (≈ 4.16 µM); with Escherichia coli [2] it was 4 µg/mL (≈ 8.32 µM); in the test with Escherichia coli [3] it was 8 µg/mL (≈ 16.6 µM); against Escherichia coli [4] it was 2 µg/mL (≈ 4.16 µM).

With `CC1(C)S[C@@H]2[C@H](NC(=O)[C@H](N)c3ccc(O)cc3)C(=O)N2[C@H]1C(=O)O` [AMOXICILLIN], the MIC was 64 µg/mL in the test with Escherichia coli [5], 32 µg/mL in the test with Escherichia coli [6] and 3 µg/mL in the test on Escherichia coli [7].

Consider `CO/N=C(\C(=O)N[C@@H]1C(=O)N2C(C(=O)O)=C(COC(C)=O)CS[C@H]12)c1csc(N)n1` [CEFOTAXIME], for which the MIC was below 0.25 µg/mL with Escherichia coli [8]; 0.094 µg/mL in the test with Escherichia coli [5]; 0.25 µg/mL (≈ 0.549 µM) in the test on Escherichia coli [1]; at most 0.12 µg/mL in the test on Escherichia coli [12]; at most 0.25 µg/mL in the test with Escherichia coli [14]; 0.094 µg/mL with Escherichia coli [6]. Besides, the MIC is at most 0.25 µg/mL in the test on Escherichia coli [3], 0.094 µg/mL with Escherichia coli [7], at most 0.12 µg/mL in the test with Escherichia coli [16] and 0.25 µg/mL (≈ 0.549 µM) with Escherichia coli [4]. Besides, the “inhibition zone (IZ)” value in the test on Escherichia coli [9] was 26 mm; with Escherichia coli [10], 30 mm; in the test with Escherichia coli [11], 24 mm; in the test on Escherichia coli [13] it was 29 mm; in the test on Escherichia coli [15], 33 mm; with Escherichia coli [17], 23 mm.

Take `CO[C@@]1(NC(=O)Cc2cccs2)C(=O)N2C(C(=O)O)=C(COC(N)=O)CS[C@@H]21` [CEFOXITIN]: the MIC was determined as 8 µg/mL (≈ 18.7 µM) in the test with Escherichia coli [8], 12 µg/mL (≈ 28.1 µM) against Escherichia coli [1] and 6 µg/mL (≈ 14 µM) against Escherichia coli [4].

On to `COCC1=C(C(=O)O)N2C(=O)[C@@H](NC(=O)/C(=N\OC)c3csc(N)n3)[C@H]2SC1` [CEFPODOXIME], for which the “inhibition zone (IZ)” value in the test on Escherichia coli [9] amounted to 20 mm; in the test with Escherichia coli [10], 16 mm; in the test on Escherichia coli [11], 15 mm; in the test with Escherichia coli [13] it was 27 mm; in the test with Escherichia coli [15] it was 21 mm; in the test with Escherichia coli [17], 20 mm. Moreover, the MIC in the test on Escherichia coli [18] was 0.25 µg/mL; in the test on Escherichia coli [12] it was at most 0.125 µg/mL; against Escherichia coli [2], 4 µg/mL (≈ 9.36 µM); against Escherichia coli [14], 1 µg/mL (≈ 2.34 µM); against Escherichia coli [3] it was 8 µg/mL (≈ 18.7 µM); with Escherichia coli [16], 0.5 µg/mL.

For the compound `CC(C)(O/N=C(\C(=O)N[C@@H]1C(=O)N2C(C(=O)[O-])=C(C[n+]3ccccc3)CS[C@H]12)c1csc(N)n1)C(=O)O` [CEFTAZIDIME], the MIC in the test on Escherichia coli [8] stood at 1 µg/mL (≈ 1.83 µM); in the test with Escherichia coli [5] it was 1 µg/mL; in the test on Escherichia coli [18], 1 µg/mL; in the test on Escherichia coli [1] it was 3 µg/mL (≈ 5.49 µM); in the test on Escherichia coli [12] it was 0.25 µg/mL; against Escherichia coli [2], 4 µg/mL (≈ 7.32 µM). Further, the MIC was at most 0.25 µg/mL in the test with Escherichia coli [14]; 0.75 µg/mL with Escherichia coli [6]; 4 µg/mL (≈ 7.32 µM) in the test on Escherichia coli [3]; 0.38 µg/mL with Escherichia coli [7]; 2 µg/mL with Escherichia coli [16]; 3 µg/mL (≈ 5.49 µM) in the test on Escherichia coli [4]. The “inhibition zone (IZ)” value in the test on Escherichia coli [9] amounted to 8 mm; with Escherichia coli [10] it was 10 mm; in the test on Escherichia coli [11], 11 mm; in the test with Escherichia coli [13], 16 mm; with Escherichia coli [15], 18 mm; in the test on Escherichia coli [17] it was 8 mm.

As for `CCN1CCN(C(=O)N[C@@H](C(=O)N[C@@H]2C(=O)N3[C@@H]2SC(C)(C)[C@@H]3C(=O)O)c2ccccc2)C(=O)C1=O` [PIPERACILLIN], the MIC in the test with Escherichia coli [19] was above 256 µg/mL; with Escherichia coli [20], 1.5 µg/mL; in the test on Escherichia coli [21], above 256 µg/mL.
